Assay results reported in publication PMC9577195, “Pharmacokinetics, bioavailability, and plasma protein binding study of glytrexate, a novel multitarget antifolate” (Frontiers in Pharmacology, 2022).

How the values were obtained:
[1] = set-up: method as in Pangeni et al., 2018; details: rat, ref Pangeni et al., 2018, cited from earlier work
KB tumor cells = test system: KB tumor cells; set-up: method as in Xing et al., 2017; details: positive control, ref Xing et al., 2017, read-out: IC50, inhibitory action on KB tumor cells; cited from earlier work
[2] = Pharmacokinetics and bioavailability in rats after single oral and intravenous doses; format: in vivo, Sprague-Dawley rats; details: rat, pemetrexed 20 mg/kg vs glytrexate 25 mg/kg
human plasma proteins = test system: human plasma proteins; set-up: method as in Robinson et al., 2004; details: ref Robinson et al., 2004; cited from earlier work

**Q.** Which “AUC after intravenous administration” value ([1]; intravenous 10 mg/kg) does the source give for `Nc1nc2[nH]cc(CCc3ccc(C(=O)N[C@@H](CCC(=O)O)C(=O)O)cc3)c2c(=O)[nH]1` [pemetrexed] here?
**A.** Its value is 31.3 ± 5.34 μg⋅h/mL.

**Q.** And the “T1/2 after intravenous administration” value ([1]; intravenous)?
**A.** Its value is 34.4 ± 4.26 min.

**Q.** What about the “AUC after oral administration” value ([1]; oral 20 mg/kg) of the same compound?
**A.** Its value is 7.55 ± 0.938 μg⋅h/mL.

**Q.** And the oral bioavailability [1]?
**A.** The oral bioavailability was 12.0 ± 1.45%.

**Q.** And the IC50 (KB tumor cells)?
**A.** Its IC50 is 0.07 µM.

**Q.** And the “oral AUC of pemetrexed relative to oral glytrexate” value [2]?
**A.** Its value is “approximately 12 fold”.

**Q.** And the “human plasma protein binding rate” value (human plasma proteins)?
**A.** The value was 81%.
